According to patent publication US5744499A, “Apoptosis-modulating factors influencing the intracellular concentration of methional/malondialdehyde” (Centre International de Recherches Dermatologiques Galderma, priority 1994, dated 1998):
Blank lines part the entries; values can stand above or below the molecule they belong to.

Tests used:
HeLa cells [1] = assay: 2-oxobutyrate reversal of MTOB-induced growth inhibition of HeLa cells (methionine-free medium); assay type: cell-based
Protocol: HeLa cells (0.5×10^6 per Petri dish) were cultured in 3 ml of a minimum essential Eagle medium not containing methionine and containing 10% by weight dialyzed fetal calf serum. After four hours, 2-oxobutyrate (10 mM-40 mM) in the presence of 2 mM 4-methylthio-2-oxobutanoic acid (MTOB) were added. After three days at 37° C., the cells were washed twice in a buffered, phosphatized saline medium having a pH of 7.5 (PBS medium) and collected in the same type of buffer. Cell growth was measured in the same manner as in the preceding example.
Beginning at a level of 10 mM 2-oxobutyrate, inhibition decreased 2-3 times.

[2] = system: reactive oxygenated substances (H2 O2 and HO^-); assay: Production of reactive oxygenated substances (H2O2 and HO-) in BAF3 cells, DCFH-DA flow cytometry; assay type: cell-based, mouse; settings: for Fluorescence/10^6 cells: compound A 0 μM
BAF3 cells [3] = assay: Apoptosis of BAF3 cells, terminal deoxynucleotidyl transferase (TdT) test, flow cytometry; assay type: cell-based, mouse; settings: 24 hours; compound A 50 μM, BCNU 40 μg/ml, or both; control 0.2
Protocol: Effect of BCNU and of an inhibitor of the transaminase implicated in the transformation of 4-methylthio-2-oxobutanoic acid into methionine on apoptosis:
The DNA strand cuttings were marked with biotinylated dUTP (detected by avidin fluorescein), in situ, in the cells rendered permeable and fixed using the terminal DNA transferase deoxynucleotidyl test (TdT), as described in Gorczyca et al, Cancer Res., 53, 1945-1951 (1993). 1.5×10^6 BAF3 cells (cell line described above) seeded in 3 ml of a culture medium containing IL3 (Dulbecco-modified Eagle medium containing 6% fetal calf serum and 5% of a medium treated with Wehl-3B cells used in the IL3 source). The cells were incubated in the presence of compound A in a concentration of 50 μM, 40 μg/ml of BCNU, and the mixture of these two compounds (50 μM of compound A+40 μg/ml of BCNU) or in the absence of these two compounds (control). After a 24-hour incubation period of time, the cells were washed in PBS buffer and fixed in formaldehyde, then in ethanol, and maintained a -20° C. for 3 days. Next, the cells were again placed in suspension in 50 μl of a solution containing […] sodium cacodylate, pH=7.5, 1 mM CoCl2, 0.1 mM dithiothreitol, 0.05 mg/ml Bovine Serum Albumin, 10 units TdT (from Boerhringer calf thymus), 0.5 nmol dCTP, and 0.5 nmol dGTP for one hour at 37° C. […]

[4] = system: murine B16 Fl melanoma cells; assay: Survival of mice grafted with B16 melanoma cells; assay type: in vivo, mouse; settings: BCNU 0.1 mg/kg, Compound A 25 mg/kg
Protocol: At t=0 day, 10^5 murine B16 Fl melanoma cells were injected into B6D2Fl mice (from the IFFA CREDO Company, France).
Table 5 reports the results corresponding to averages of the results obtained on three treated mice.
For the regimens containing multiple compounds, the quantities of each of the compounds used were identical to those of the regimens using the compounds by themselves.
Survival time was recorded beginning at t=0 day, as indicated above.
BCNU corresponds to N,N-Bis(2-chloroethyl)-N-nitrosourea. Compound A corresponds to the compound having formula (9), wherein X is a --OH radical.
Between the two regimens, the latter (to which methional was added) accounted for one-third of the mice surviving more than 60 days. The "average survival time" is the mean of the number of mice dying over the course of the experiment, i.e., within 60 days.
The procedure of the previous example was repeated, but the regimens and numbers of mice treated varied.
With respect to this latter regiment, the quantities corresponded to the quantities of compounds used alone. The percentage of long-term survivors corresponded to the percentage of mice which survived beyond 60 days.

HeLa cells [5] = assay: Effect of metabolites on the growth of HeLa cells; assay type: cell-based; settings: Homo sapiens, 72 h, three days at 37° C., estimated by protein content, average of 3 or 4 experiments, read-out: IC50 (concentration required to inhibit cell growth by 50%)
Protocol: HeLa cells (0.5×10^6 per Petri dish) were cultured in 3 ml of a minimum essential Eagle medium containing 10% by weight dialyzed fetal calf serum. After four hours, methional (10 μM-1 mM), methionol (10 μM-20 mM), methylthiopropionic acid (MTPA) (1 μM-20 mM), L-methionine (1 μM-20 mM) or 4-methylthio-2-oxobutanoic acid (MTOB) (1 μM-20 mM) were added to each of the three dishes. After three days at 37° C., the cells were washed twice in a buffered, phosphatized saline medium having a pH of 7.5 (PBS medium) and collected in the same type of buffer.
Cell growth was assessed by measuring protein content (see technique described in O. H. Lowry, N. J. Rosebrouh, A. L. Farr, and R. J. Randall, J. Biol. Chem., 193, 265-275 (1951)) or the DNA content in the lysate using a bisbenzimide trihydrochloride solution (Hoechst 33258) (see W. D. Jarvis, R. N. Kolesnick, F. A. Fornari, R. S. Traylor, D. A. Gewirtz, and S. Grant, Proc. Natl. Acad. Sci. USA, 91, 73-77 (1994)), or by determining […] using 3-(4,5-dimethylthiazol-2-yl)-2,5-diphenyl-tetrazolium bromide (MTT) (see T. Mosmann, J. of Immunology, Methods, 65, 55-63 (1983)).
Each value of is the average of 3 or 4 experiments as estimated by protein content.
IC50 represents the concentration of compound required to inhibit cell growth by 50%.

BAF3-bO cells = system: BAF3-bO cells
Protocol: (§1) The cells used were identical to those in the preceding example.
(§2) [^14 C]MTOB was prepared by oxidative deamination of [^14 C]Methionine, as described in Ogier et al, Biochem. Pharmacol., 45, 1631-1644 (1993). [^14 C]MTOB (5×10^6 dpm corresponding to 38.2 nmol) was added to a cellular BAF3-bO or BAF3-bcl2 suspension (2.4×10^5 cells/ml) in DMEM containing 6% fetal calf serum and 5% IL3. 39 hours later, the cells were washed twice in PBS and placed in suspension at a concentration of 9×10^5 cells/ml. [U ^14 C]MTOB (1.9×10^6 dpm corresponding to 14.5 nmol) was added to 10^8 cells, and, eight hours later, the cells were collected by centrifugation at 400 g for five minutes. The cellular sediments were solubilized using 1.5 ml of 0.5N NaOh for 30 minutes at 60° C. The total radioactivity in the cells was measured on 10 μl aliquots. Next, perchloric acid in a final concentration of 0.5N, then 200 μmol of 2,4-DNPH (2,4-dinitrophenylhyrazine, marketed by Merck) were added to the alkaline hydrolyzate obtained. The mixture was heated to 70° C. for 30 minutes, then centrifuged at 400 g for five minutes. The precipitate was solubilized ion 1 ml of 0.5N NaOH, and the radioactivity and protein content were determined. NaOH, pH=10, was added to the supernatant. The marked metabolites were extracted in ethylene acetate, and the organic phase was dried, acidified, and extracted in dichloromethane. The marked metabolites in the organic phase were separated out and identified using high-performance thin-layer chromatography and compared to the 2,4-DNPH derivatives of the reference compounds, then quantified by radiochromatography.

BAF3-bcl2 cells = system: BAF3-bcl2 cells
Protocol: as §1, §2

BAF3 cells [6] = assay: DNA fragmentation in BAF3 cells, agarose gel electrophoresis; assay type: cell-based, mouse; settings: 200-800 μM, medium with IL3, 8 hours
Protocol: K. L. Collins, J. Marvel, […] A. Lopez-[…]. Exp. Med., 176, 1043-1051 (1992)]. […] After 8 hours of contact, the cells were washed three times in a phosphatized buffered saline medium, pH=7.5 (PBS medium). […] The supernatants were decanted and analyzed as indicated below. For purposes of comparison, the same cultures were grown in a medium, either with IL3 (+IL3) or without IL3 (-IL3). The DNA fragments obtained were analyzed qualitatively using the method described, in particular, in W. D. Jarvis, […], and S. Grant, Proc. Natl. Acad. Sci. USA, 91, 73-77 (1994). The supernatants were treated with ribonuclease A (20 μg/ml) for 1 hour at 37° C., and with the proteinase R (100 μg/ml). The DNA was purified using phenol extraction and precipitated with ethanol. […] After electrophoresis (60V, 3 hours), the gels were stained with ethydium bromide.

[7] = Table 5, three mice, daily injection for 15 days, Methional 25 mg/kg, control 20.5

SMILES: CCC(=O)C(=O)O [2-oxobutyrate]
- decrease of growth inhibition (HeLa cells [1]; beginning at 10 mM 2-oxobutyrate, with 2 mM MTOB): 2-3 times

SMILES: O=NN(CCCl)C(=O)NCCCl [BCNU, N,N-Bis(2-chloroethyl)-N-nitrosourea]
- Fluorescence/10^6 cells ([2]; BCNU 10 μg/ml): 4%
- Fluorescence/10^6 cells ([2]; BCNU 20 μg/ml): 4%
- Fluorescence/10^6 cells ([2]; BCNU 40 μg/ml): 10%
- % apoptotic cells (BAF3 cells [3]): 2.3%
- Average Survival Time [4, 7]: 24.5 days
- % long-term survivors (mice surviving beyond 60 days) ([4]; Table 6, 6 or 10 mice, Methional 50 mg/kg, control 0): 0%
- Average Survival Time ([4]; Table 6, 6 or 10 mice, Methional 50 mg/kg, control 23.7): 32.5 days

SMILES: CSCCC(NCc1c(CO)cnc(C)c1O)C(=O)OC(C)(C)C (stereo not drawn) [Compound A]
- effect on increase of HO^- resulting from increased BCNU concentration ([2]; compound A 50 μM with BCNU): suppressed the increase of HO^-
- % apoptotic cells (BAF3 cells [3]): 0.3%
- Average Survival Time [4, 7]: 21.9 days

- IC50 (HeLa cells [5]): > 20 mM
SMILES: CSCC[C@H](N)C(=O)O [L methionine, L-methionine]

SMILES: CSCCC(=O)C(=O)O [MTOB, 4-methylthio-2-oxobutanoic acid]
- IC50 (HeLa cells [5]): 1.6 mM
- inhibition at 2000 µM (HeLa cells [1]; Homo sapiens, HeLa, 72 h, 2 mM MTOB alone, three days at 37° C.): 72%

- IC50 (HeLa cells [5]): 10 mM
SMILES: CSCCC(=O)O [MTPA, methylthiopropionic acid]

SMILES: CSCCC(=O)C(=O)O [[^14 C]MTOB]
- 2,4-DNPH malondialdehyde (2,4-DNPH pyrazole) (BAF3-bO cells; BAF3-bO): 800 dpm/mg of DNA
- 2,4-DNPH methional (BAF3-bO cells; BAF3-bO): 14,050 dpm/mg of DNA
- Free methional (BAF3-bO cells; BAF3-bO): 36,820 dpm/mg of DNA
- Spec. activity of cellular proteins (BAF3-bO cells; BAF3-bO): 23,500 dpm/mg protein
- radioactivity in methional higher in BAF3-bO than in BAF3-bcl2 cells (BAF3-bO cells; BAF3-bO compared with BAF3-bcl2): 80%
- Total radioactivity/mg of DNA (BAF3-bO cells; BAF3-bO, incubation 47 hours): 1,252,000 /mg of DNA
- 2,4-DNPH malondialdehyde (2,4-DNPH pyrazole) (BAF3-bcl2 cells; BAF3-bcl2): 0 dpm/mg of DNA
- 2,4-DNPH methional (BAF3-bcl2 cells; BAF3-bcl2): 7,650 dpm/mg of DNA
- Free methional (BAF3-bcl2 cells; BAF3-bcl2): 51,440 dpm/mg of DNA
- Spec. activity of cellular proteins (BAF3-bcl2 cells; BAF3-bcl2): 20,850 dpm/mg protein
- Total radioactivity/mg of DNA (BAF3-bcl2 cells; BAF3-bcl2, incubation 47 hours): 1,111,000 /mg of DNA
- marked malondialdehyde formation, result in words (BAF3-bcl2 cells; BAF3-bcl2 cell extracts): no radioactivity with respect to the malondialdehyde was detected
- increase in radioactivity of free methionine (printed metmonine) in BAF3-bcl2 versus BAF3-bO cells (BAF3-bcl2 cells; BAF3-bcl2 compared with BAF3-bO): 40%

- IC50 (HeLa cells [5]): > 20 mM
SMILES: CSCCCO [methionol]

SMILES: CCCO [propanol]
- triggering of apoptosis (ladder of DNA fragments of 180 to 200 base pairs on gel) (BAF3 cells [6]): the gel did not possess this characteristic
